Results: patent publication US6187905A, “Alpha-ketoamide derivatives” (Hoffmann-La Roche Inc., priority 1998, dated 2001)
Read-outs that look alike come from different tables or passages of the source. *1 amine or outer side, *2 acyl side, *3 side chain or, on linkers, in order; H or OH if unused. Where a SMILES comes first, the peptide text is derived from it. [ ]: non-standard residue; d: D form. The star is where a group is joined. Phe(2-Me) = Cc1ccccc1C[C@H](N)C(=O)O; NleCONH2 = CCCC[C@H](N*)C(=O)C(N)=O; Suc = O=C(CCC(=O)[*:2])[*:1]; Tle = CC(C)(C)[C@H](N)C(=O)O

Molecular target: HCV proteinase (Hepatitis C virus genotype 1a, UniProt P27958)
Assay: HCV proteinase inhibition assay (described in WO 98/22496)
Assay type: biochemical
From the text: As mentioned earlier, the compounds of formula I and their salts are inhibitors of proteases of viral origin. For example, all compounds of formula 1 are inhibitors against HCV protease.

Sequence of HCV proteinase (P27958 1027-1208): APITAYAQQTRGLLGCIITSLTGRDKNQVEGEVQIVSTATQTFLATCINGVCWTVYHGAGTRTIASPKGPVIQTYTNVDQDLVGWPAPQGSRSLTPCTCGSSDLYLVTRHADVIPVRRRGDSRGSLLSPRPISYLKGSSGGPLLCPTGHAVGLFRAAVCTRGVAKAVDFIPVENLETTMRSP

Row | SMILES | IC50 [nM] | IC50 (read-out: HCV proteinase IC50) [nM]
1 | CCCC[C@H](NC(=O)[C@H](CC(C)C)NC(=O)[C@@H](NC(=O)[C@H](Cc1ccccc1C)NC(=O)[C@H](CCC(=O)O)NC(=O)[C@H](CC(=O)O)NC(=O)CCC(=O)O)C(C)(C)C)C(=O)C(N)=O [J, 3(S)-[[N-[N-[N-[N-[N-(3-Carboxypropionyl)-L-α-aspartyl]-L-α-glutamyl]-2-methyl-L-phenylalanyl]-3-methyl-L-valyl]-L-leucyl]amino]-2-oxoheptanamide] (Suc-DE[Phe(2-Me)][Tle]L-NleCONH2) | 11.5 | –
2 | Cc1ccccc1C[C@H](NC(=O)[C@H](CCC(=O)O)NC(=O)[C@H](CC(=O)O)NC(=O)CCC(=O)O)C(=O)N[C@H](C(=O)N[C@@H](CC(C)C)C(=O)NC(CC(F)(F)F)C(=O)C(=O)N[C@H](c1ccccc1)C(C)C)C(C)(C)C (mixture of isomers) [C, 3(RS)-[[N-[N-[N-[N-[N-(3-Carboxypropionyl)-L-α-aspartyl]-L-α-glutamyl]-2-methyl-L-phenylalanyl]-3-methyl-L-valyl]-L-leucyl]amino]-5,5,5-trifluoro-N-(2-methyl-1(S)-phenylpropyl)-2-oxovaleramide] | 7 | –
3 | Cc1ccccc1C[C@H](NC(=O)[C@H](CCC(=O)O)NC(=O)[C@H](CC(=O)O)NC(=O)CCC(=O)O)C(=O)N[C@H](C(=O)N[C@@H](CC(C)C)C(=O)NC(CC(F)(F)F)C(=O)C(=O)NCc1ccc(O)cc1)C(C)(C)C (mixture of isomers) [E, 3(RS)-[[N-[N-[N-[N-[N-(3-Carboxypropionyl)-L-α-aspartyl]-L-α-glutamyl]-2-methyl-L-phenylalanyl]-3-methyl-L-valyl]-L-leucyl]amino]-5,5,5-trifluoro-N-(4-hydroxybenzyl)-2-oxovaleramide] | 4 | –
4 | Cc1ccccc1C[C@H](NC(=O)[C@H](CCC(=O)O)NC(=O)[C@H](CC(=O)O)NC(=O)CCC(=O)O)C(=O)N[C@H](C(=O)N[C@@H](CC(C)C)C(=O)NC(CC(F)(F)F)C(=O)C(=O)N[C@@H](C)c1ccc2ccccc2c1)C(C)(C)C (mixture of isomers) [I] | – | 8
5 | CC[C@H](NC(=O)C(=O)C(CC(F)(F)F)NC(=O)[C@H](CC(C)C)NC(=O)[C@@H](NC(=O)[C@H](Cc1ccccc1C)NC(=O)[C@H](CCC(=O)O)NC(=O)[C@H](CC(=O)O)NC(=O)CCC(=O)O)C(C)(C)C)c1ccccc1 (mixture of isomers) [B, 3(RS)-[[N-[N-[N-[N-[N-(3-Carboxypropionyl)-L-α-aspartyl]-L-α-glutamyl]-2-methyl-L-phenylalanyl]-3-methyl-L-valyl]-L-leucyl]amino]-5,5,5-trifluoro-2-oxo-N-(1(S)-phenylpropyl)valeramide] | 7 | –
6 | Cc1ccccc1C[C@H](NC(=O)[C@H](CCC(=O)O)NC(=O)[C@H](CC(=O)O)NC(=O)CCC(=O)O)C(=O)N[C@H](C(=O)N[C@@H](CC(C)C)C(=O)NC(CC(F)(F)F)C(=O)C(=O)N[C@@H](C)c1ccc2ccccc2c1)C(C)(C)C (mixture of isomers) [A] | – | 4
7 | Cc1ccccc1C[C@H](NC(=O)[C@H](CCC(=O)O)NC(=O)[C@H](CC(=O)O)NC(=O)CCC(=O)O)C(=O)N[C@H](C(=O)N[C@@H](CC(C)C)C(=O)NC(CC(F)(F)F)C(=O)C(=O)N[C@@H](C)c1ccccc1)C(C)(C)C (mixture of isomers) [G, 3(RS)-[[N-[N-[N-[N-[N-(3-Carboxypropionyl)-L-α-aspartyl]-L-α-glutamyl]-2-methyl-L-phenylalanyl]-3-methyl-L-valyl]-L-leucyl]amino]-5,5,5-trifluoro-N-(α(S)-methylbenzyl)-2-oxovaleramide] | 4 | –
8 | Cc1ccccc1C[C@H](NC(=O)[C@H](CCC(=O)O)NC(=O)[C@H](CC(=O)O)NC(=O)CCC(=O)O)C(=O)N[C@H](C(=O)N[C@@H](CC(C)C)C(=O)NC(CC(F)(F)F)C(=O)C(=O)NCc1ccccc1)C(C)(C)C (mixture of isomers) [H, N-Benzyl-3(RS)-[[N-[N-[N-[N-[N-(3-carboxypropionyl)-L-α-aspartyl]-L-α-glutamyl]-2-methyl-L-phenylalanyl]-3-methyl-L-valyl]-L-leucyl]amino]-5,5,5-trifluoro-2-oxovaleramide] | 4 | –
9 | COc1cccc(CNC(=O)C(=O)C(CC(F)(F)F)NC(=O)[C@H](CC(C)C)NC(=O)[C@@H](NC(=O)[C@H](Cc2ccccc2C)NC(=O)[C@H](CCC(=O)O)NC(=O)[C@H](CC(=O)O)NC(=O)CCC(=O)O)C(C)(C)C)c1 (mixture of isomers) [F, 3(RS)-[[N-[N-[N-[N-[N-(3-Carboxypropionyl)-L-α-aspartyl]-L-α-glutamyl]-2-methyl-L-phenylalanyl]-3-methyl-L-valyl]-L-leucyl]amino]-5,5,5-trifluoro-N-(3-methoxybenzyl)-2-oxovaleramide] | 6 | –
10 | Cc1ccccc1C[C@H](NC(=O)[C@H](CCC(=O)O)NC(=O)[C@H](CC(=O)O)NC(=O)CCC(=O)O)C(=O)N[C@H](C(=O)N[C@@H](CC(C)C)C(=O)NC(CC(F)(F)F)C(=O)C(N)=O)C(C)(C)C (single isomer, unassigned) [D, 3(R or S)-[[N-[N-[N-[N-[N-(3-Carboxypropionyl)-L-α-aspartyl]-L-α-glutamyl]-2-methyl-L-phenylalanyl]-3-methyl-L-valyl]-L-leucyl]amino]-5,5,5-trifluoro-2-oxovaleramide] | 7 | –
